Experimental data published in ChEMBL document CHEMBL2029245, “Binding evaluation of fragment-based scaffolds for probing allosteric enzymes” (J Med Chem, 2012).

Each compound was assayed against T1, Glycogen phosphorylase, muscle form (Oryctolagus cuniculus, UniProt P00489) (assay: Binding affinity to rabbit muscular GPa by NMR binding assay).
T1 sequence (P00489 whole entry): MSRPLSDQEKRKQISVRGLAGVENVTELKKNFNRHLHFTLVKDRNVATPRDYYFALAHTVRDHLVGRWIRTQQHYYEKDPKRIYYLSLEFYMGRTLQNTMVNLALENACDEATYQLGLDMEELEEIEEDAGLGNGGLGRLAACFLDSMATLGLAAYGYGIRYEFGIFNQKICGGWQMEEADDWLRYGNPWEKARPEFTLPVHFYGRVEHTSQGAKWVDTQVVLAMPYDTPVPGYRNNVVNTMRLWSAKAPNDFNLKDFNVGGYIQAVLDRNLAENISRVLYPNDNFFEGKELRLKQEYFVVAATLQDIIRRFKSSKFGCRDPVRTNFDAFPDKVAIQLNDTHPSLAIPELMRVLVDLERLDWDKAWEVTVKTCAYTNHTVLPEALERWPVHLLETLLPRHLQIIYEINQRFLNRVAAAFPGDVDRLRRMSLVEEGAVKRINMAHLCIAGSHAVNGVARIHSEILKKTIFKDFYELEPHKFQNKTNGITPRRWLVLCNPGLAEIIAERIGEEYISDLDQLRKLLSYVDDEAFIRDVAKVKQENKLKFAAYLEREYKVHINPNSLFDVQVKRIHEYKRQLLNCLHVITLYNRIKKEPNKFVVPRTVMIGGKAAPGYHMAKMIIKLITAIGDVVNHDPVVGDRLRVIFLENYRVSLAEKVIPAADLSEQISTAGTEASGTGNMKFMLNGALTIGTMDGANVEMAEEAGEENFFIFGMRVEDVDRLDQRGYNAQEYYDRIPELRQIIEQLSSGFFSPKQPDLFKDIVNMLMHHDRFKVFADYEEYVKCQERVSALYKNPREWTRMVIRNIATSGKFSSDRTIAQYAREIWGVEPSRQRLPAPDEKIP
`Cc1cc(F)c(Sc2nccn2C)cc1C(=O)Nc1cccc(N)c1` showed an IC50 of 2.7 µM.
Compound `Cc1cc(F)c(Sc2nccn2C)cc1C(=O)Nc1cccc(C#N)c1` has an IC50 of 9.9 µM.
Compound `O=C(CN1CCN(c2ccccc2)CC1)Nc1nccs1` has an IC50 of 96.9 µM.

Each compound was assayed against T1, Glycogen phosphorylase, muscle form.
Description: Binding affinity to rabbit muscular GPb by NMR binding assay
Work on `Cc1cn([C@@H]2O[C@H](CO)[C@@H](O)[C@H](O)[C@H]2O)c(=O)[nH]c1=O` yielded an IC50 of 6.6 µM.
Work on `O=C(NC(=O)c1cc2ccccc2[nH]1)N[C@@H]1O[C@H](CO)[C@@H](O)[C@H](O)[C@H]1O` yielded an IC50 of 4 µM.
`Nc1ccccc1C(=O)Nc1ccccc1Oc1ccc(C(=O)O)c(C(=O)O)c1` was tested, and the IC50 was 0.9 µM.
With `O=C(O)c1ccccc1-n1cc(C(=O)O)c(=O)c2cc(Cc3c(F)cc(F)cc3Cl)c(Cl)cc21` the IC50 was 0.024 µM.
In the case of `O=C1NCC(O)NC12O[C@H](CO)[C@@H](O)[C@H](O)[C@H]2O` (stereo not given in full), the IC50 is reported as 59.8 µM.

The compounds below were run against T2, Glycogen phosphorylase, liver form (Homo sapiens, UniProt P06737) (assay: Binding affinity to human liver GPa by NMR binding assay).
T2 sequence (P06737 whole entry): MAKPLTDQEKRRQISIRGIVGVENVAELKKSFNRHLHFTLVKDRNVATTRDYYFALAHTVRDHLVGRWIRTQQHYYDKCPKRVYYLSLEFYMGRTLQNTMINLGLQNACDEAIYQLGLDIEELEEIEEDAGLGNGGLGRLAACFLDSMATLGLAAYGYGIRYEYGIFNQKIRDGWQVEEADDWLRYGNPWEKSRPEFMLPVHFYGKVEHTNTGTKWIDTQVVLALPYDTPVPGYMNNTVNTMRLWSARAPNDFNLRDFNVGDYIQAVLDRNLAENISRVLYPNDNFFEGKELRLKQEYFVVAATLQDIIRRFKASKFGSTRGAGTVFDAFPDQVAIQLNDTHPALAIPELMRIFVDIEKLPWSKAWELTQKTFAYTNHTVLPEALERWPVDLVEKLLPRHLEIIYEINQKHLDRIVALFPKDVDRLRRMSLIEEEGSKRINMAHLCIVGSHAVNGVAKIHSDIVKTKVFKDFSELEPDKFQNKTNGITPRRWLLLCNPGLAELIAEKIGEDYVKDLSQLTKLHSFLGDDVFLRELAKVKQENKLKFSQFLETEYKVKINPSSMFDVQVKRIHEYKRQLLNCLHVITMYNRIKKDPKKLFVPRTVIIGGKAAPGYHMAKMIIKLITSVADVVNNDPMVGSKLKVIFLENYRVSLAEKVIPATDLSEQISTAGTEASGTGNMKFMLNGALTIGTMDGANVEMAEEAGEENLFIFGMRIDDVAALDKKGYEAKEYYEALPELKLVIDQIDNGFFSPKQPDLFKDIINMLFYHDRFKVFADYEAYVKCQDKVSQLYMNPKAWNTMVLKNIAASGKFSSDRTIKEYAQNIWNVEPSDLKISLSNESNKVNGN
`Nc1ccccc1C(=O)Nc1ccccc1Oc1ccc(C(=O)O)c(C(=O)O)c1` gave an IC50 of 1.3 µM.
In the case of `COCCNC(=O)c1c[nH]c2ccc(Cl)cc12`, the IC50 is reported as 12.5 µM.
